Laboratory results reported in patent publication US20090136624A1, “LACTIC ACID BACTERIA PRODUCING NISIN AT HIGH CONCENTRATION AND METHOD FOR SELECTING THE SAME” (Ajinomoto Co., Inc., priority 2004, published 2009).

How the values were obtained:
[1] = tested on: Nisin Z-producing strain (parent strain); experiment: Growth of parent strain on Nisin-containing M17 medium (MIC); assay type: cell-based, Lactococcus lactis; conditions: 30° C., 2 days
Experimental: A Nisin Z-producing strain (parent strain shown in Table 3) separated from its native environment was plated on M17 medium (manufactured by Difco) prepared such that a Nisin concentration became 1,000, 2,000, 5,000 or 10,000 IU/mL, and was cultured at 30° C. for 2 days. This strain grew in M17 medium having a Nisin concentration of 1,000 or 2,000 IU/mL, but not in M17 medium having a Nisin concentration of 5,000 or 10,000 IU/mL. From the results, it was confirmed that the minimum growth inhibitory concentration (MIC) of this strain to Nisin was 5,000 IU/mL.

[2] = tested on: Nisin Z-producing lactic acid bacteria (mutated strain); experiment: Growth of NTG-mutated Nisin Z-producing lactic acid bacteria in Nisin-containing M17 medium; assay type: cell-based, Lactococcus lactis
Experimental: The Nisin Z-producing lactic acid bacteria separated from its native environment were precultured in M17 medium, and the lactic acid bacteria were treated with 500 μg/mL of NTG to induce mutation.

For Nisin, the “minimum growth inhibitory concentration (MIC) of this strain to Nisin” value [1] was 5,000 IU/mL, the Growth number ([2]; Nisin conc. 1,000 IU/ml) was 1.20E+09 cell/ml and the Growth number ([2]; Nisin conc. 2,000 IU/ml) was 1.20E+09 cell/ml. For the same substance, the Growth number ([2]; Nisin conc. 4,000 IU/ml) was 1.20E+09 cell/ml, the Growth number ([2]; Nisin conc. 8,000 IU/ml) was 7.00E+08 cell/ml and the Growth number ([2]; Nisin conc. 10,000 IU/ml) was 1.14E+08 cell/ml. It also gave a Growth number ([2]; Nisin conc. 20,000 IU/ml) of 3.21E+07 cell/ml, a Growth number ([2]; Nisin conc. 40,000 IU/ml) of 9.35E+05 cell/ml and a Growth number ([2]; Nisin conc. 80,000 IU/ml) of 1.16E+03 cell/ml. It also gave a Growth number ([2]; Nisin conc. 100,000 IU/ml) of 4.76E+02 cell/ml.
